Test results reported in the NIST ThermoML archive (doi:10.1016/j.jct.2016.10.031).

Test: molar heat capacity at constant pressure
Details: 101.33 kPa, Small (less than 1 g) adiabatic calorimetry

CC(C)(C)c1ccc(Oc2ccc([N+](=O)[O-])cc2)cc1 [1-(tert-butyl)-4-(4-nitrophenoxy)benzene]
Details	molar heat capacity at constant pressure [J/K/mol]
5 K, Crystal	1.355
7.47 K, Crystal	4.099
7.73 K, Crystal	4.357
7.99 K, Crystal	4.806
8.25 K, Crystal	4.93
8.5 K, Crystal	5.379
8.76 K, Crystal	5.679
9 K, Crystal	6.111
9.25 K, Crystal	6.543
9.5 K, Crystal	6.718
9.74 K, Crystal	6.934
9.98 K, Crystal	7.616
10 K, Crystal	7.483
10.29 K, Crystal	7.94
10.67 K, Crystal	8.647
11.05 K, Crystal	9.237
11.43 K, Crystal	9.903
11.82 K, Crystal	10.72
12.19 K, Crystal	11.55
12.56 K, Crystal	12.15
12.94 K, Crystal	12.7
13.31 K, Crystal	13.57
13.67 K, Crystal	14.33
14.04 K, Crystal	15.21
14.41 K, Crystal	15.49
14.78 K, Crystal	16.59
15 K, Crystal	16.88
15.14 K, Crystal	17.38
15.51 K, Crystal	17.73
15.87 K, Crystal	18.62
16.23 K, Crystal	19.3
16.59 K, Crystal	20.01
16.95 K, Crystal	20.59
17.31 K, Crystal	21.22
17.67 K, Crystal	21.96
18.02 K, Crystal	23.17
18.38 K, Crystal	23.47
18.74 K, Crystal	23.92
19.09 K, Crystal	24.86
19.44 K, Crystal	25.53
19.8 K, Crystal	26.14
20 K, Crystal	26.69
20.15 K, Crystal	27.16
20.82 K, Crystal	28.34
21.6 K, Crystal	29.77
22.37 K, Crystal	31.32
23.15 K, Crystal	32.68
23.93 K, Crystal	34.2
24.7 K, Crystal	35.79
25 K, Crystal	36.33
25.47 K, Crystal	37.61
26.25 K, Crystal	38.45
27.02 K, Crystal	40.22
27.78 K, Crystal	41.32
28.55 K, Crystal	43.04
29.31 K, Crystal	44.42
30 K, Crystal	45.73
30.07 K, Crystal	45.76
30.84 K, Crystal	47.58
31.6 K, Crystal	48.75
32.37 K, Crystal	49.72
33.14 K, Crystal	51.08
33.9 K, Crystal	52.67
34.66 K, Crystal	54.05
35 K, Crystal	54.54
35.42 K, Crystal	55.3
36.18 K, Crystal	57.11
36.94 K, Crystal	57.85
37.7 K, Crystal	58.97
38.45 K, Crystal	60.6
39.21 K, Crystal	61.49
39.97 K, Crystal	62.88
40 K, Crystal	63.11
40.73 K, Crystal	64.39
41.49 K, Crystal	65.82
42.25 K, Crystal	66.47
43.01 K, Crystal	68.18
43.76 K, Crystal	69.21
44.52 K, Crystal	70.63
45 K, Crystal	71.17
45.29 K, Crystal	71.91
46.05 K, Crystal	72.64
46.81 K, Crystal	73.61
47.56 K, Crystal	75.02
48.32 K, Crystal	75.74
49.08 K, Crystal	77.04
49.84 K, Crystal	77.52
50 K, Crystal	77.91
50.59 K, Crystal	79.05
51.35 K, Crystal	79.22
52.11 K, Crystal	79.8
52.86 K, Crystal	81.65
53.62 K, Crystal	82.43
54.38 K, Crystal	83.39
55.13 K, Crystal	84.31
55.89 K, Crystal	84.81
56.64 K, Crystal	85.14
57.4 K, Crystal	86.3
58.15 K, Crystal	87.8
58.9 K, Crystal	88.13
59.65 K, Crystal	89.46
60 K, Crystal	89.55
60.41 K, Crystal	89.8
61.16 K, Crystal	91.13
61.91 K, Crystal	92.37
62.66 K, Crystal	92.46
63.41 K, Crystal	94.04
64.16 K, Crystal	94.87
64.91 K, Crystal	94.78
65.66 K, Crystal	96.12
66.41 K, Crystal	96.12
67.16 K, Crystal	97.94
67.91 K, Crystal	97.94
68.65 K, Crystal	99.44
69.4 K, Crystal	100.27
70 K, Crystal	101.19
70.15 K, Crystal	102.77
71.05 K, Crystal	102.93
72.11 K, Crystal	103.85
73.17 K, Crystal	104.93
74.23 K, Crystal	106.18
75.29 K, Crystal	108.42
76.35 K, Crystal	108.75
77.41 K, Crystal	110.08
78.47 K, Crystal	112
79.3 K, Crystal	112.16
79.53 K, Crystal	113.49
79.87 K, Glass	115.9
80 K, Crystal	113.16
80.1 K, Crystal	112.83
80.58 K, Crystal	114.66
80.67 K, Glass	116.65
80.9 K, Crystal	113.82
81.47 K, Glass	117.4
81.64 K, Crystal	116.15
81.71 K, Crystal	114.66
82.27 K, Glass	118.31
82.51 K, Crystal	115.4
82.7 K, Crystal	116.82
83.08 K, Glass	119.23
83.31 K, Crystal	116.49
83.75 K, Crystal	117.48
83.88 K, Glass	120.06
84.11 K, Crystal	117.32
84.68 K, Glass	120.98
84.92 K, Crystal	118.07
85.48 K, Glass	121.97
85.72 K, Crystal	119.06
86.29 K, Glass	122.89
86.52 K, Crystal	119.98
87.09 K, Glass	123.8
87.32 K, Crystal	120.81
87.89 K, Glass	124.55
